Measured values from patent US12492173B2, “Herbicidal substituted N-tetrazolyl aryl carboxamides” (Bayer Aktiengesellschaft, priority 2019, dated 2025).

Key:
Assay type in all cases: in vivo
Amaranthus retroflexus = test: Pre-emergence herbicidal action, AMARE; set-up: key to Herbicidal action against AMARE: % activity: 100 = plants have died, 0 = like control plants; settings: for herbicidal activity AMARE / herbicidal action AMARE: dosage 320 g/ha; for herbicidal activity AMARE: scored visually after 3 weeks vs untreated controls (100% = plants have died); for Herbicidal action against AMARE: comparative experiment
Procedure, shortened: (§1)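 Seeds sown in sandy loam in pots and covered with soil; compounds formulated as WP or EC were sprayed onto the soil surface as aqueous suspension/emulsion at 600 to 800 l/ha water with 0.2% wetting agent. Greenhouse growth; visual damage scored after 3 weeks versus untreated controls (100% = plants died, 0% = like control).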

Echinochloa crus-galli [1] = test: Pre-emergence herbicidal action, ECHCG; set-up: key to Herbicidal action against ECHCG: % activity: 100 = plants have died, 0 = like control plants; settings: for herbicidal activity ECHCG / herbicidal action ECHCG: dosage 320 g/ha; for herbicidal activity ECHCG: scored visually after 3 weeks vs untreated controls (100% = plants have died); for Herbicidal action against ECHCG: comparative experiment
Procedure, shortened: as §1

Alopecurus myosuroides = test: Post-emergence herbicidal action, ALOMY; set-up: key: % herbicidal action vs untreated; 100 = plants died, 0 = like control; settings: for Herbicidal action against ALOMY: comparative experiment
Procedure, shortened: (§2)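 Treatment: post-emergence spray, one-leaf stage. Medium: sandy loam, greenhouse. Carrier: 600–800 l/ha water, 0.2% wetting agent. Read-out: visual % activity at ~3 weeks, untreated plants as reference.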

Echinochloa crus-galli [2] = test: Post-emergence herbicidal action, ECHCG; set-up: key: % herbicidal action vs untreated; 100 = plants died, 0 = like control; settings: for Herbicidal action against ECHCG: comparative experiment
Procedure, shortened: as §2

Pharbitis purpurea = test: Post-emergence herbicidal action, PHBPU
Procedure, shortened: as §2

Setaria viridis = test: Post-emergence herbicidal action, SETVI; set-up: key: % herbicidal action vs untreated; 100 = plants died, 0 = like control; settings: for Herbicidal action against SETVI: comparative experiment
Procedure, shortened: as §2

[3] = post-emergence, 20 g of a.i./ha

Compound | herbicidal activity AMARE (Amaranthus retroflexus) [%] | herbicidal activity ECHCG (Echinochloa crus-galli [1]) [%] | herbicidal action ALOMY (Alopecurus myosuroides; post-emergence, dosage 80 g/ha) [%] | herbicidal action ECHCG (Echinochloa crus-galli [2]; post-emergence, dosage 80 g/ha) [%] | herbicidal action PHBPU (Pharbitis purpurea; post-emergence, dosage 80 g/ha) [%] | herbicidal action SETVI (Setaria viridis; post-emergence, dosage 80 g/ha) [%] | herbicidal action ALOMY (Alopecurus myosuroides; Dosage 80 g/ha) | herbicidal action ECHCG (Echinochloa crus-galli [2]; Dosage 80 g/ha) | herbicidal action PHBPU (Pharbitis purpurea; Dosage 80 g/ha) | herbicidal action SETVI (Setaria viridis; Dosage 80 g/ha) | further results
Cn1nnnc1NC(=O)c1ccc(C(F)(F)F)c(CSC2CC2)c1Cl [Example 1-302] | 100 | 100 | 100 | 100 | 100 | 100 | – | – | – | – | –
Cn1nnnc1NC(=O)c1ccc(C(F)(F)F)c(CS(=O)(=O)C2CC2)c1Cl [Example 1-304] | 100 | 100 | 100 | 100 | 100 | 90 | – | – | – | – | –
COCCSCc1c(C(F)(F)F)ccc(C(=O)Nc2nnnn2C)c1Cl [Example 1-305] | 100 | 100 | 100 | 100 | 100 | 100 | – | – | – | – | –
Cn1nnnc1NC(=O)c1ccc(C(F)(F)F)c(CSCC(F)(F)F)c1Cl [Example 1-311] | 100 | 100 | – | – | – | – | 100 | 100 | 100 | 100 | –
Cn1nnnc1NC(=O)c1ccc(C(F)(F)F)c(CSCC2CC2)c1Cl [Example 1-314] | 100 | 100 | 100 | 100 | 100 | 100 | – | – | – | – | –
Cn1nnnc1NC(=O)c1ccc(C(F)(F)F)c(CS(=O)(=O)CC2CC2)c1Cl [Example 1-316] | 100 | 100 | – | – | – | – | 90 | 100 | 90 | 90 | –
CSCc1c(C(F)F)ccc(C(=O)Nc2nnnn2C)c1Cl [Example 1-320] | 90 | 100 | – | – | – | – | 100 | 100 | 90 | 100 | Herbicidal action against ECHCG (Echinochloa crus-galli [1]; 20 g of a.i./ha): 100; Herbicidal action against ECHCG (Echinochloa crus-galli [2]; post-emergence, 5 g of a.i./ha): 100; Herbicidal action against SETVI (Setaria viridis; post-emergence, 5 g of a.i./ha): 100
Cn1nnnc1NC(=O)c1ccc(C(F)F)c(CS(C)(=O)=O)c1Cl [Example 1-322] | 100 | 100 | 90 | 100 | 80 | 100 | – | – | – | – | –
CCSCc1c(C(F)F)ccc(C(=O)Nc2nnnn2C)c1Cl [Example 1-323] | 100 | 100 | 90 | 100 | 100 | 100 | – | – | – | – | Herbicidal action against SETVI (Setaria viridis; post-emergence, 5 g of a.i./ha): 100
CCS(=O)(=O)Cc1c(C(F)F)ccc(C(=O)Nc2nnnn2C)c1Cl [Example 1-325] | 100 | 100 | – | – | – | – | 90 | 100 | 100 | 100 | –
CSCc1c(I)ccc(C(=O)Nc2nnnn2C)c1Cl [Example 1-362] | 100 | 100 | 90 | 100 | 100 | 90 | – | – | – | – | Herbicidal action against AMARE (Amaranthus retroflexus; 20 g of a.i./ha): 90; Herbicidal action against ECHCG (Echinochloa crus-galli [1]; 20 g of a.i./ha): 80; Herbicidal action against ALOMY (Alopecurus myosuroides; post-emergence, 5 g of a.i./ha): 70
CCSCc1c(C(F)(F)F)ccc(C(=O)Nc2nnnn2C)c1Br [Example 1-383] | 100 | 100 | 100 | 90 | 90 | 90 | – | – | – | – | Herbicidal action against AMARE (Amaranthus retroflexus; 80 g of a.i./ha): 100; Herbicidal action against ECHCG (Echinochloa crus-galli [1]; 80 g of a.i./ha): 100; Herbicidal action against ALOMY (Alopecurus myosuroides; [3]): 80; Herbicidal action against SETVI (Setaria viridis; [3]): 90
CCS(=O)(=O)Cc1c(C(F)(F)F)ccc(C(=O)Nc2nnnn2C)c1Br [Example 1-385] | 100 | 100 | 90 | 90 | 90 | 100 | – | – | – | – | Herbicidal action against AMARE (Amaranthus retroflexus; 80 g of a.i./ha): 100; Herbicidal action against ECHCG (Echinochloa crus-galli [1]; 80 g of a.i./ha): 100; Herbicidal action against ALOMY (Alopecurus myosuroides; [3]): 80; Herbicidal action against ECHCG (Echinochloa crus-galli [2]; [3]): 90; Herbicidal action against PHBPU (Pharbitis purpurea; comparative experiment, post-emergence, 20 g of a.i./ha): 80; Herbicidal action against SETVI (Setaria viridis; [3]): 90
CSCc1c(Cl)ccc(C(=O)Nc2nnnn2C)c1Cl [Example 1-559] | – | – | 90 | 100 | 100 | 100 | – | – | – | – | herbicidal action AMARE (Amaranthus retroflexus): 100%; herbicidal action ECHCG (Echinochloa crus-galli [1]): 100%
CCSCc1c(C(F)(F)F)ccc(C(=O)Nc2nnnn2CC)c1C [Example 2-86] | – | – | 90 | 90 | 90 | 90 | – | – | – | – | herbicidal action AMARE (Amaranthus retroflexus): 100%; herbicidal action ECHCG (Echinochloa crus-galli [1]): 100%
CCn1nnnc1NC(=O)c1ccc(C(F)(F)F)c(CS(=O)(=O)CC)c1C [Example 2-88] | – | – | – | – | – | – | 90 | 90 | 90 | 90 | herbicidal action AMARE (Amaranthus retroflexus): 100%; herbicidal action ECHCG (Echinochloa crus-galli [1]): 100%
CCn1nnnc1NC(=O)c1ccc(C(F)F)c(C[S+](C)[O-])c1C (centres unmarked) [Example 2-108] | – | – | – | – | – | – | 80 | 100 | 100 | 90 | herbicidal action AMARE (Amaranthus retroflexus): 100%; herbicidal action ECHCG (Echinochloa crus-galli [1]): 90%
CCn1nnnc1NC(=O)c1ccc(C(F)(F)F)c(C[S+](C)[O-])c1SC (centres unmarked) [Example 2-162] | 100 | 100 | – | – | – | – | 90 | 90 | 90 | 90 | –
CCn1nnnc1NC(=O)c1ccc(C(F)F)c(CSC)c1SC [Example 2-170] | 100 | 100 | – | – | – | – | 80 | 100 | 90 | 90 | –
CCn1nnnc1NC(=O)c1ccc(C(F)(F)F)c(CSC)c1Cl [Example 2-296] | 100 | 100 | 100 | 90 | 90 | 90 | – | – | – | – | –
CCn1nnnc1NC(=O)c1ccc(C(F)(F)F)c(C[S+](C)[O-])c1Cl (centres unmarked) [Example 2-297] | 100 | 100 | 100 | 100 | 100 | 100 | – | – | – | – | –
